Source: patent US9078901B2, “Pharmacological modulation of telomere length in cancer cells for prevention and treatment of cancer” (priority 2007, dated 2015)
“Also recorded” adds a separate entry of the source.

How the values were obtained:
U-2 OS cells = assay: Flow-FISH telomere length (PNA-FITC probe) and PI cell cycle analysis in treated telomerase negative U-2 OS cells; format: cell-based, human; conditions: for apoptosis (flow-FISH) / cell cycle (PI) / telomere length (flow-FISH): ACV 3 μM; for apoptosis (flow-FISH) / cell cycle (PI) / telomere length (flow-FISH) / apoptosis / cell cycle distribution / telomere length: GCV 1.5 μM, PCV 1.5 μM; for apoptosis / cell cycle distribution / telomere length: after 10 and 14 days of treatments, ACV 3.0 μM
Method: (§1) Both telomerase positive (HeLa) telomerase negative (U-2 OS) cell lines were used. Appropriate assays were performed to detect and confirm telomerase/L1RT specific activity in these cells.
(§2) Telomere length in ACV, GCV and PCV treated and untreated cell lines was measured by flow cytometry with a telomere-specific peptide nucleic acid (PNA) probe^23,24. To determine cell cycle distribution, cells were stained with propidium iodide (PI)^23.
(§3) The U-2 OS (osteosarcoma) and HeLa (uterine cervix) cell lines used in this study were obtained from American Type Culture Collection (Rockville, Md.). Cells were cultured in D-MEM media supplemented with 10% fetal calf serum at 37° C. in a humidified atmosphere of 5% CO2. For treatment of the cells with ACV, the media was supplemented with 3 μM of acyclovir (acyclovir, TEVA Pharm. Ind. Ltd, Israel). For treatment of the cells with GCV, the media was supplemented with 1.5 μM of GCV (Cymevene, Hoffman-La Roche). For treatment of the cells with PCV, the media was supplemented with 1.5 μM of PCV (penciclovir, Merck & Co.).
(§4) For telomere length measurement by flow cytometry, cells were stained with telomere specific FITC conjugated (C3TA2)3 PNA (Applied Biosystems) probe and contrastained with 0.06 μg/ml PI as described by Rufer et al., 1998, Telomere length dynamics in human lymphocyte subpopulations were measured by flow cytometry, Nat. Biotechnol. 16, 743-747.

HeLa cells [1] = assay: Tumor growth progression assay, s.c. HeLa xenografts in nude mice; format: in vivo, nude (nu/nu) mice; conditions: 1×10^6 HeLa cells s.c., GCV 2 mg/ml in drinking water ad libitum from day zero
Description: Exemplary in vivo assays of anti-tumor efficacy of ACV, PCV and/or GCV using nude mice subcutaneous (s.c.) tumors grown from the human HeLa cancer cell line (i.e., xenografts bearing mice) as cancer models are described below. Human cancerous cells needed for in vivo assays may be prepared, for example, as follows: Telomerase positive HeLa human cell line and telomerase negative U-2 OS human cell line are obtained from public sources. Cells are maintained in D-MEM media supplemented with 10% foetal calf serum at 37° C. in a humidified atmosphere of 5% CO2. For in vivo assay, appropriate host, e.g., nude (nu/nu) mice of about 5-7 weeks old are obtained and maintained in pathogen-free conditions. Approximately, 1×10^6 HeLa cells (and/or U-2 OS cells) contained in 200 μl of serum-free media are delivered to all animals, briefly anaesthetized with Metofane, by subcutaneous (s.c.) injection in flank. Then the mice are divided into experimental group and control group. Appropriate concentrations of ACV, PCV and/or GCV are used for tumor growth progression or regression assays. In one embodiment, impairment of s.c. tumor growth or time to progression rather than decrease in size of an established tumor (regression) is assessed. […] Tumors are measured every 2-3 days. […] Tumor volume is calculated with formula 4/3πr^3, where r is the radius of the tumor.

HeLa cells [2] = assay: Flow-FISH telomere length (PNA-FITC probe) and PI cell cycle analysis in treated telomerase positive HeLa cells; format: cell-based, human; conditions: for apoptosis (flow-FISH) / cell cycle (PI) / telomere length (flow-FISH): 10 days of treatment, ACV 3 μM, FIG. 1; for apoptosis (flow-FISH) / cell cycle (PI) / telomere length (flow-FISH) / apoptosis / cell cycle distribution / telomere length: GCV 1.5 μM, PCV 1.5 μM; for apoptosis / cell cycle distribution / telomere length: after 10 and 14 days of treatments, ACV 3.0 μM; for cell cycle distribution (PI): treated for 14 days
Method: as §1, §2, §3, §4

| Structure (SMILES) | apoptosis (flow-FISH) (U-2 OS cells; 10 days of treatment, FIG. 2) | cell cycle (PI) (U-2 OS cells; 10 days of treatment, FIG. 2) | telomere length (flow-FISH) (U-2 OS cells; 10 days of treatment, FIG. 2) | cell cycle (PI) (U-2 OS cells; 14 days of treatment) | apoptosis (flow-FISH) (U-2 OS cells; 14 days of treatment, FIG. 3) | telomere length (flow-FISH) (U-2 OS cells; 14 days of treatment, FIG. 3) | apoptosis (U-2 OS cells) | cell cycle distribution (U-2 OS cells) | telomere length (U-2 OS cells) | s.c. tumor development (HeLa cells [1]) | apoptosis (flow-FISH) (HeLa cells [2]) | cell cycle (PI) (HeLa cells [2]) | telomere length (flow-FISH) (HeLa cells [2]) | apoptosis (HeLa cells [2]) | cell cycle distribution (HeLa cells [2]) | telomere length (HeLa cells [2]) | cell cycle distribution (PI) (HeLa cells [2]) | onset of changes in cell cycle distribution (U-2 OS cells; ACV treatment) | onset of changes in cell cycle distribution (HeLa cells [2]; ACV treatment) |
| --- | --- | --- | --- | --- | --- | --- | --- | --- | --- | --- | --- | --- | --- | --- | --- | --- | --- | --- | --- |
| Nc1nc(O)c2ncn(COC(CO)CO)c2n1 [GCV] | massive apoptosis | changes in cell cycle | decrease in telomere length | changes in cell cycle; also recorded: G2 arrest of cell cycle | massive apoptosis | decrease in telomere length | massive apoptosis | G2 arrest | telomere shortening | remain tumor free | massive apoptosis | changes in cell cycle | decrease in telomere length | massive apoptosis | G2 arrest | telomere shortening | G2 arrest of cell cycle | – | – |
| Nc1nc2c(ncn2COCCO)c(=O)[nH]1 [ACV, 9-[2(hydromethoxy)-methyl]guanine] | massive apoptosis | changes in cell cycle | decrease in telomere length | changes in cell cycle; also recorded: G2 arrest of cell cycle | massive apoptosis | decrease in telomere length | massive apoptosis | G2 arrest | telomere shortening | – | massive apoptosis | changes in cell cycle | decrease in telomere length | massive apoptosis | G2 arrest | telomere shortening | G2 arrest of cell cycle | could be detected after only few days | could be detected after only few days |
| Nc1nc2c(ncn2CCC(CO)CO)c(=O)[nH]1 [PCV] | massive apoptosis | changes in cell cycle | decrease in telomere length | changes in cell cycle; also recorded: G2 arrest of cell cycle | massive apoptosis | decrease in telomere length | massive apoptosis | G2 arrest | telomere shortening | – | massive apoptosis | changes in cell cycle | decrease in telomere length | massive apoptosis | G2 arrest | telomere shortening | G2 arrest of cell cycle | – | – |
